Data from US20230027066A1 (Urovant Sciences GmbH, priority 2019, published 2023).

System: men and women with overactive bladder
Assay: Phase 3 study of vibegron 75 mg vs placebo and tolterodine ER 4 mg, 12 weeks, efficacy (voiding and urine volume diary)
Format: in vivo, human
Details: for Daily Urgency Episodes: Reduction from Baseline at Week 12, LS Mean: vibegron 75 mg, tolterodine ER 4 mg; for Patients with 100% Reduction in UUI from Baseline to Week 12, Unadjusted n (%) / Patients with at Least 75% Reduction in UUI from Baseline to Week 12, Unadjusted n (%) / Patients with 100% Reduction in UUI from Baseline to Week 12, Adjusted n (%) / Patients with at Least 75% Reduction in UUI from Baseline to Week 12, Adjusted n (%): FAS-I; for Patients with 100% Reduction in UUI from Baseline to Week 12, Adjusted n (%) / Patients with at Least 75% Reduction in UUI from Baseline to Week 12, Adjusted n (%): MI for missing values; for 75% UUI responders, Active-Placebo CMH Difference / 100% UUI responders, Active-Placebo CMH Difference: stratified by sex; for Urgency, Change from Baseline LS Mean / Urgency, LS Mean Difference active - Placebo: baseline to Week 12
Description: Enrollment of patients included individuals with OAB Wet (those with UUI, the involuntary loss of urine accompanied by urgency) and OAB Dry (those without UUI). A total of 1,518 patients were randomized across 215 study sites into one of three groups for a 12-week treatment period.
The study consisted of a Screening Period (1 to 5 weeks), a single-blind Run-in Period (2 weeks), a randomized double-blind Treatment Period (12 weeks), and a Follow-up Period (4 weeks).
Tolterodine ER 4 mg was the active control. […] Between the Baseline and Week 12 Visits, patients had study assessments at Week 4 and Week 8.
The Patient Voiding Diary was used by participants (via the eDiary or paper Diary) to record the frequency of daily OAB symptoms including all micturitions, urgency, incontinence, and main reason for incontinence by selecting the respective box for each symptom occurring during the course of a given day and night.
Urine volume data were collected separately by patients using the Urine Volume component of the eDiary, or the paper Urine Volume Chart. The Urine Volume Chart is a tool used in clinical practice and clinical investigation to assess voiding functions over a 24-hour period and is regarded as a useful instrument in the investigation of patients with voiding symptoms. Urine volume may be collected during any one (1) of the 7 Diary Days prior to the visit, and it should be recorded for ˜24 hours starting from the time the patient gets up for the day and continues until the time the patient gets up for the day on the next day.
For the purpose of this study, the number of micturitions was defined as the number of times a patient has voided in the toilet as indicated on the Patient Voiding Diary. Average daily micturitions were calculated using the daily entries in the Patient Voiding Diary, which was completed over the 7 days prior to each study visit. Average daily number of micturitions were calculated as the total number of micturitions that occurred on a Complete Diary Day divided by the number of Complete Diary Days in the Patient Voiding Diary. A complete diary day required confirmation by the patient in the Patient Voiding Diary that all voids and leakages had been recorded for the diary day. Baseline was defined as the average number of micturitions occurring during the last evaluable diary prior to the Baseline Visit.
The number of UUI episodes was defined as the number of times a patient had checked “urge” as the reason for accidental urine leakage. Average daily UUI episodes at each study visit were calculated in the same manner as described above for the micturition endpoint. The UUI endpoint were analyzed using only OAB Wet patients.
For the analysis of the co-primary endpoints (change from baseline in average number of daily micturitions at Week 12 and change from baseline in average number of daily urge urinary incontinence episodes at Week 12, and placebo adjustment of each), a mixed model for repeated measure (MMRM) with restricted maximum likelihood estimation was used. This model corrects for dropout and accounts for the fact that measurements taken on the same patient over time tend to be correlated by using all available information on patients within the same covariate set to derive an estimate of the treatment effect for a dropout-free population. The analysis model for each efficacy endpoint includes terms for treatment, visit, OAB Type (Wet vs Dry), Sex (Female vs Male), Region (US vs Rest of World), baseline score, and interaction of visit by treatment.
Primary inferences were drawn from treatment differences for the changes from baseline derived from the MMRM models at Week 12. As part of secondary objectives, the treatment differences for each post baseline visit were also derived using the same MMRM model. […]

[1] = 50% Total Incontinence Responders, Week 2
[2] = 50% Total Incontinence Responders, Week 4
[3] = 50% Total Incontinence Responders, Week 8
[4] = 50% Total Incontinence Responders, Week 12
[5] = Cox model with sex as covariate, >1 = more treated subjects attain reduction
[6] = Dry population, baseline to Week 2

Cc1ccc(O)c([C@H](CCN(C(C)C)C(C)C)c2ccccc2)c1 [Tolterodine ER, tolterodine, reference compound]
Average Volume Voided per Micturition, Mean (SD) [1]: 167.1 (75.27) | Average daily number of urgency episodes, Mean (SD) [1]: 5.68 (3.690) | Change from Baseline in Average Daily Number of Urgency Episodes, LS Mean (SE) [1]: −2.1 (0.17) | Change from Baseline in Average Volume Voided per Micturition, LS Mean [1]: 16.9 (4.12) | Change from baseline in Percent Dry Diary Days, LS Mean [1]: 23.9 (2.33) Percent | Percent Dry Diary Days, Mean (SD) [1]: 28.44 (35.758) Percent | Average Volume Voided per Micturition, Mean (SD) [2]: 171.3 (73.88) | Average daily number of urgency episodes, Mean (SD) [2]: 5.18 (3.663) | Change from Baseline in Average Daily Number of Urgency Episodes, LS Mean (SE) [2]: −2.6 (0.18) | Change from Baseline in Average Volume Voided per Micturition, LS Mean [2]: 16.3 (4.38) | Change from baseline in Percent Dry Diary Days, LS Mean [2]: 32.6 (2.69) Percent | Percent Dry Diary Days, Mean (SD) [2]: 36.82 (40.267) Percent | Average Volume Voided per Micturition, Mean (SD) [3]: 177.7 (76.78) | Average daily number of urgency episodes, Mean (SD) [3]: 4.68 (3.707) | Change from Baseline in Average Daily Number of Urgency Episodes, LS Mean (SE) [3]: −3.1 (0.21) | Change from Baseline in Average Volume Voided per Micturition, LS Mean [3]: 24.8 (4.56) | Change from baseline in Percent Dry Diary Days, LS Mean [3]: 40.0 (2.76) Percent | Percent Dry Diary Days, Mean (SD) [3]: 44.86 (40.529) Percent | Average Volume Voided per Micturition, Mean (SD) [4]: 175.4 (77.58) | Average daily number of urgency episodes, Mean (SD) [4]: 4.02 (3.539) | Change from Baseline in Average Daily Number of Urgency Episodes, LS Mean (SE) [4]: −3.6 (0.22) | Change from Baseline in Average Volume Voided per Micturition, LS Mean [4]: 21.1 (4.74) | Change from baseline in Percent Dry Diary Days, LS Mean [4]: 49.7 (2.68) Percent | Percent Dry Diary Days, Mean (SD) [4]: 55.43 (37.734) Percent | Average Volume Voided per Micturition, Mean (SD) (75% UUI Responders, Week 2): 170.6 (77.20) | Average daily number of urgency episodes, Mean (SD) (75% UUI Responders, Week 2): 5.37 (3.577) | Change from Baseline in Average Volume Voided per Micturition, LS Mean (75% UUI Responders, Week 2): 17.5 (4.96) | Change from baseline in average daily number of urgency episodes, LS Mean (75% UUI Responders, Week 2): −2.3 (0.21) | Average Volume Voided per Micturition, Mean (SD) (75% UUI Responders, Week 4): 174.8 (73.04) | Average daily number of urgency episodes, Mean (SD) (75% UUI Responders, Week 4): 4.93 (3.675) | Change from Baseline in Average Volume Voided per Micturition, LS Mean (75% UUI Responders, Week 4): 16.2 (5.27) | Change from baseline in average daily number of urgency episodes, LS Mean (75% UUI Responders, Week 4): −2.8 (0.23) | Average Volume Voided per Micturition, Mean (SD) (75% UUI Responders, Week 8): 182.1 (77.27) | Average daily number of urgency episodes, Mean (SD) (75% UUI Responders, Week 8): 4.42 (3.677) | Change from Baseline in Average Volume Voided per Micturition, LS Mean (75% UUI Responders, Week 8): 26.1 (5.51) | Change from baseline in average daily number of urgency episodes, LS Mean (75% UUI Responders, Week 8): −3.3 (0.25) | Average Volume Voided per Micturition, Mean (SD) (75% UUI Responders, Week 12): 177.3 (77.70) | Average daily number of urgency episodes, Mean (SD) (75% UUI Responders, Week 12): 3.67 (3.542) | Change from Baseline in Average Volume Voided per Micturition, LS Mean (75% UUI Responders, Week 12): 19.1 (5.83) | Change from baseline in average daily number of urgency episodes, LS Mean (75% UUI Responders, Week 12): −3.9 (0.27) | Daily Urgency Episodes: Reduction from Baseline at Week 12, LS Mean (Age ≥65 years): −2.1 | Daily Urgency Episodes: Reduction from Baseline at Week 12, LS Mean (Age ≥75 years): −2.4 | Daily Urgency Episodes: Reduction from Baseline at Week 12, LS Mean (All patients): −2.5 | Patients with 100% Reduction in UUI from Baseline to Week 12, Unadjusted n (%) (Baseline Number of UUI <3): 62 (33.2) n (%) | Patients with at Least 75% Reduction in UUI from Baseline to Week 12, Unadjusted n (%) (Baseline Number of UUI <3): 98 (52.4) n (%) | Patients with 100% Reduction in UUI from Baseline to Week 12, Adjusted n (%) (Baseline Number of UUI <3): 54 (29.0) n (%) | Patients with at Least 75% Reduction in UUI from Baseline to Week 12, Adjusted n (%) (Baseline Number of UUI <3): 91 (48.4) n (%) | 75% UUI responders, Active-Placebo CMH Difference (Baseline Number of UUI <3): 10.1 | 100% UUI responders, Active-Placebo CMH Difference (Baseline Number of UUI <3): 1.5 | Patients with 100% Reduction in UUI from Baseline to Week 12, Unadjusted n (%) (Baseline Number of UUI ≥3): 23 (17.4) n (%) | Patients with at Least 75% Reduction in UUI from Baseline to Week 12, Unadjusted n (%) (Baseline Number of UUI ≥3): 54 (40.9) n (%) | Patients with 100% Reduction in UUI from Baseline to Week 12, Adjusted n (%) (Baseline Number of UUI ≥3): 13 (9.6) n (%) | Patients with at Least 75% Reduction in UUI from Baseline to Week 12, Adjusted n (%) (Baseline Number of UUI ≥3): 44 (33.7) n (%) | 75% UUI responders, Active-Placebo CMH Difference (Baseline Number of UUI ≥3): 8.4 | 100% UUI responders, Active-Placebo CMH Difference (Baseline Number of UUI ≥3): 2.6 | Hazard Ratio, 50% reduction in urgency episodes, Compared to Placebo Using Proportional Hazards [5]: 1.225 | Hazard Ratio, 100% reduction in UUI episodes, Compared to Placebo Using Proportional Hazards [5]: 1.141 | Urgency, Change from Baseline LS Mean (Dry population, Age <65): −2.3 (57) | Urgency, LS Mean Difference active - Placebo (Dry population, Age <65): −0.8 | Urgency, Change from Baseline LS Mean (Dry population, Age ≥65): −1.5 (35) | Urgency, LS Mean Difference active - Placebo (Dry population, Age ≥65): 0.2 | Average daily number of urgency episodes, Mean (SD) (Dry population, Week 2): 6.87 (4.260) | Change from baseline in average daily number of urgency episodes, LS Mean (Dry population, Week 2): −1.4 (0.27) | Urgency episodes, Active - Placebo LS Mean Difference (Dry population, Week 2): −0.6 (0.37) | Average daily number of urgency episodes, Mean (SD) (Dry population, Week 4): 7.03 (4.865) | Change from baseline in average daily number of urgency episodes, LS Mean (Dry population, Week 4): −1.6 (0.29) | Urgency episodes, Active - Placebo LS Mean Difference (Dry population, Week 4): −0.7 (0.40) | Average daily number of urgency episodes, Mean (SD) (Dry population, Week 8): 6.25 (4.957) | Change from baseline in average daily number of urgency episodes, LS Mean (Dry population, Week 8): −2.2 (0.34) | Urgency episodes, Active - Placebo LS Mean Difference (Dry population, Week 8): −1.0 (0.46) | Average daily number of urgency episodes, Mean (SD) (Dry population, Week 12): 6.56 (5.480) | Change from baseline in average daily number of urgency episodes, LS Mean (Dry population, Week 12): −2.0 (0.36) | Urgency episodes, Active - Placebo LS Mean Difference (Dry population, Week 12): −0.4 (0.49) | Patients with at Least 50% Reduction in Urgency Episodes, Adjusted (%) [6]: 16.3% | Patients with at Least 50% Reduction in Urgency Episodes, Adjusted n [6]: 16 | Patients with at Least 50% Reduction in Urgency Episodes, Unadjusted (%) [6]: 16.3% | Patients with at Least 50% Reduction in Urgency Episodes, Unadjusted n [6]: 16
